Results from paper PMC12410356 (International Journal for Parasitology: Drugs and Drug …, 2025).

Tests used:
[1] = test system: E. multilocularis metacestode vesicles; assay: Phosphoglucose isomerase (PGI) release assay (damage-marker release) on metacestode vesicles; format: cell-based, Echinococcus multilocularis; conditions: 10 μM; for PGI d5 (relative PGI release): 5 days; for PGI d12 (relative PGI release): 12 days
[2] = test system: E. multilocularis metacestode vesicles; assay: Metacestode vesicle viability assay (ATP, CellTiter-Glo); format: cell-based, Echinococcus multilocularis
Procedure: Viability was assessed after 12 days using the same metacestode vesicles as for the PGI release assay. Triton X-100 was added to each well to a final concentration of 0.1 %. Subsequently the metacestode vesicles were broken mechanically and 50 μL of the supernatant was mixed with 50 μL of CellTiter-Glo® buffer (Promega, Dübendorf, Switzerland). Measurements were performed on a HIDEX Sense microplate reader.

[3] = overview screen, singlets, relative to 0.1 % Triton X-100, DMSO subtracted
[4] = overview screen, 10 μM, singlets, 12 days, relative to DMSO control
[5] = confirmation screen, triplicates, mean

SMILES	PGI d5 (relative PGI release) [1, 3] [%]	PGI d12 (relative PGI release) [1, 3] [%]	Viability d12 (relative viability) [2, 4] [%]	Viability d12 (relative viability) ([2]; 10 µM) [%]	PGI d5 (relative PGI release) [1, 5] [%]	PGI d12 (relative PGI release) [1, 5] [%]	Viability d12 (relative viability) ([2]; confirmation screen, 10 μM, triplicates, mean, 12 days) [%]
Nc1nc(O)c(Br)c(-c2cccc(Cl)c2)n1 [MMV1645152]	-0.1718	-17.4315	465.171				
CCc1nc2ccccn2c1C(=O)NCc1ccccc1 [MMV1663457]	-2.34	-12.7903	46.6749				
O=C(NCc1ccc(F)cc1)c1c(O)c2ncccc2[nH]c1=O [MMV1782097]	0.7945	-0.6563	171.617				
CCCCN1C[C@H](O)[C@@H](O)[C@H](O)[C@H]1CO [MMV1782098]	-0.9049	-0.1991	82.1234				
COc1cc(C(C)(C)CCCC(C)C)cc(OC)c1OC [MMV1782102]	0.2099	-19.1561	58.4954				
COCCn1cnc2c(O)nc(Nc3ccccc3)nc21 [MMV1782103]	-0.2041	-2.0996	66.6969				
NC(=O)c1nccn([C@@H]2O[C@H](CO)[C@@H](O)[C@H]2O)c1=O [MMV1782104]	1.472	-19.2173	106.79				
O=c1oc2ccc(Br)cc2cc1CSc1ncc[nH]1 [MMV1782105]	1.562	-17.9407	107.746				
CCc1cc(CCC(=O)Nc2ccccc2O)c(=O)[nH]c1C [MMV1782106]	1.217	-17.9747	488.194				
O=c1[nH]c(=O)n(Cc2cccc(Oc3ccccc3)c2)cc1Nc1ccccc1 [MMV1782107]	0.6712	-19.0475	211.334				
CCCCc1ccc(S(=O)(=O)Nc2cc(C)on2)cc1 [MMV1782108]	-2.561	-24.5808	50.3487				
O=C(N[C@H](Cc1cccc2ccccc12)C(=O)NCCc1c[nH]cn1)C1Cc2ccccc2C1 [MMV1782109]	-2.59	-25.3398	29.391				
O=C(CCc1ccc2c(c1)OCO2)NCc1ccc(-c2ccccc2F)cc1 [MMV1782110]	-0.8152	-13.3688	100.363				
CC(C)C(=O)N[C@H]1[C@H]([C@H](O)[C@H](O)CO)OC(C(=O)O)=C[C@@H]1N=[N+]=[N-] [MMV1782111]	-0.6196	0.1424	85.5263				
CCOC(=O)/C=C/[C@H](C[C@@H]1CCNC1=O)NC(=O)[C@H](CC)n1cccc(NC(=O)c2cc(C)on2)c1=O [MMV1782112]	0.1675	-19.6518	109.382				
CCCC1(C2CC2)c2cc(Cl)ccc2NC(=O)N1C (stereo not drawn) [MMV1782113]	0.2859	0.236	107.305				
COc1ccc2sc3c(c2c1)NC(C)CNC3=O (stereo not drawn) [MMV1782115]	-1.121	1.77	114.23				
O=C(Nc1nnc(-c2ccc(Cl)cc2)o1)c1ccc(F)cc1 [MMV1782140]	-3.764	9.726	86.8653				
CN1C(=O)C(c2ccccc2)C(=O)N(c2ccccc2)c2cc(C(F)(F)F)ccc21 (stereo not drawn) [MMV1782208]	0.993	-0.2102	97.8548				
COc1ccc(C(C)(C)C)cc1NC(=O)C(=O)c1ccc(OCCN2CCOCC2)c2ccccc12 [MMV1782209]	0.2921	0.2691	152.31				
Nc1nc2c(ncn2/C=C2/CC2(CO)CO)c(=O)[nH]1 [MMV1782210]	0.1371	-1.147	144.056				
C[C@@H](NC(=O)c1cccc(-c2cnc(-c3cc4ccccc4cn3)[nH]2)c1)c1ccc(F)cc1 [MMV1782211]	2.451	6.1027	82.804				

SMILES	PGI d5 (relative PGI release) [1, 3] [%]	PGI d12 (relative PGI release) [1, 3] [%]	Viability d12 (relative viability) [2, 4] [%]	Viability d12 (relative viability) ([2]; 10 µM) [%]	PGI d5 (relative PGI release) [1, 5] [%]	PGI d12 (relative PGI release) [1, 5] [%]	Viability d12 (relative viability) ([2]; confirmation screen, 10 μM, triplicates, mean, 12 days) [%]
CC(C)(C)c1ccc(C(=O)NC(=O)N2CCCc3ccccc32)cc1 [MMV1782212]	-2.428	-24.6748	85.4175				
O=C(CSc1nnc(Br)n1-c1ccc(C2CC2)c2ccccc12)Nc1ccc(C(=O)O)cc1Cl [MMV1782213]	1.533	-0.7445	116.37				
C=CCN(C(=O)OCc1ccc([N+](=O)[O-])cc1)C1CCN(CC[C@](C)(CN(C)S(=O)(=O)c2ccccc2)c2ccccc2)CC1 [MMV1782214]	0.9992	3.53	76.726				
O=P(O)(O)C(CCCc1cccc(Oc2ccccc2)c1)S(=O)(=O)O (stereo not drawn) [MMV1782215]	0.5378	19.5176	65.7947				
CCCNc1ccc(S(=O)(=O)Nc2cc(C)on2)cc1 [MMV1782216]	-2.087	-24.1037	105.791				
Cc1cc(NS(=O)(=O)c2ccc(-c3ccc(F)cc3F)cc2)no1 [MMV1782217]	-2.099	-26.6121	58.3644				
O=C(NC(=O)N1CCCc2ccccc21)c1ccc(Cl)cc1Cl [MMV1782218]	-2.44	-25.0073	60.7859				
CC(C)CCN1C(=O)C(C2=NS(=O)(=O)c3cc(NS(C)(=O)=O)ccc3N2)=C(O)[C@@H]2[C@H]3CC[C@H](C3)[C@@H]21 [MMV1782220]	0.5402	0.853	132.239				
C[C@H](c1cccc2ccccc12)N(C)Cc1ccccc1 [MMV1782221]	2	-21.1471	45.2554				
CN1c2ccc(Cl)cc2N(c2ccccc2)C(=O)c2cn(Cc3ccc(CN4CCOCC4)cc3)nc21 [MMV1782222]	-0.005582	0.3517	123.597				
CN(C)c1[nH]c(=O)ncc1F [MMV1782223]	-2.446	-24.7543	98.8605				
N#C/C(=C1/SC[C@@H](c2ccc(Cl)cc2Cl)S1)n1ccnc1 [MMV1782224]	12.0659	-22.8965		41.9155			
O=C(Nc1[nH]c(=O)ncc1F)c1ccccc1 [MMV1782225]	-0.8152	-21.87	224.691				
OB1OCc2c1ccc(Cl)c2F [MMV1782226]	-2.405	-26.1495	39.4941				
O=C(NNC(=S)Nc1ccc(Cl)cc1)c1ccncc1 [MMV1782227]	3.665	72.3585	12.3576		0.0543	-0.30	83.65
Cc1cc(CCOc2c(C)cc(-c3nnn(C)n3)cc2C)on1 [MMV1782349]	-0.7312	-0.8271	107.625				
CC(C)Oc1ccc(-n2cnc3cc(/C=C\c4ccc(C(C)(C)O)cc4)ccc32)cc1 [MMV1782350]	-0.1916	0.3132	72.1416				
O=C(NC(=O)N1CCCc2ccccc21)c1cccc(Cl)c1 [MMV1782351]	-2.457	-24.682	118.649				
O=C(O)COc1cccc2c1CC[C@](O)(COC(=O)N(c1ccccc1)c1ccccc1)C2 [MMV1782352]	-0.08001	-0.2818	68.1339				
CC(C)(C)NC(=O)[C@@H]1CN(Cc2cnc3occc3c2)CCN1C[C@@H](O)C[C@@H](Cc1ccccc1)C(=O)N[C@H]1c2ccccc2C[C@H]1O [MMV1782353]	0.2673	-0.3369	92.6641				
Cc1cc(-c2ccccc2)c(C(=O)C(=O)Nc2ccc(N3CCN(c4ncc(F)cn4)CC3)cc2)n1C [MMV1782354]	1.821	-11.1929	36.0707				
Nc1nc2c(Cc3cccnc3)c[nH]c2c(=O)[nH]1 [MMV1782355]	-0.9111	0.236	81.2481				
